The subject of one experiment is isolated hearts. The experiment is described as follows: In vitro global ischemia/reperfusion of isolated perfused hearts, infarct size and recovery of LVDP. Set-up: species or system rat. The conditions noted are these: for effect of inhibitor alone on cardioprotection: inhibitor perfused prior to ischemia/reperfusion, no vancomycin. Here is the method: (§1) For in vitro ischemia/reperfusion studies, hearts were perfused retrogradely, as described previously in Baker, J. et al. (Am. J. Physiol. Heart Circ. Physiol., 2000), the entirety of which is incorporated herein by reference. Briefly, hearts were perfused with modified Krebs-Henseleit buffer (120 mM NaCl, 25 mM NaHCO3, 4.7 mM KCl, 1.2 mM KH2PO4, 1.20 mM MgSO4, 11 mM glucose, and 1.8 mM CaCl2) bubbled with 95% O2-5% CO2 for a 40-minute stabilization period and subjected to 25 minutes of global no-flow ischemia, followed by 180 minutes of reperfusion. Before use, all perfusion fluids were filtered through cellulose acetate membranes with a pore size of 5.0 μm to remove particulate matter. Hearts were kept in temperature-controlled chambers to maintain myocardial temperature at 37° C. A balloon connected to a pressure transducer was inserted into the left ventricle to monitor cardiac function. For some experiments, hearts were stabilized for 25 minutes and then perfused with vancomycin or a mixture of antibiotics for 15 minutes before ischemia/reperfusion. During the initial 40 minute reperfusion period, recovery of mechanical function was measured as left ventricular developed pressure (LVDP) under steady-state conditions and expressed as a percentage of preischemic LVDP. At the end of the 3 hour reperfusion period, hearts were processed and stained with 2,3,5-triphenyltetrazolium chloride dye for IS determination.

In another experiment the test system is rats. The experiment is described as follows: Myocardial ischemia/reperfusion by the protocol of example 3 (model not given). The note with it: Dahl S rats, single antibiotic in drinking water (60 or 120 mg/kg/day). The format is in vivo, rat.
Source text: In the following example, methods for assaying myocardial infarction in vitro and in vivo in rats as determined by ischemia/reperfusion studies are described.
(§2) An anesthetized rat model was used for in vivo ischemia/reperfusion studies using the general surgical protocol and determination of infarct size (IS) described in “K(ATP) opener-induced delayed cardioprotection: involvement of sarcolemmal and mitochondrial K(ATP) channels, free radicals and MEK½” (Gross, E. et al., J. Mol. Cell. Cardiol. 35, 985-992, 2003), the entirety of which is incorporated herein by reference. Briefly, following anesthesia, a tracheotomy for artificial ventilation was performed, with the left common carotid artery cannulated for blood pressure and heart rate measurements. A thoracotomy was performed at the fifth intercostal space, the pericardium was excised, and a silk ligature was placed distal to the left atrial appendage that spanned to the sternal portion of the left ventricle, which included the left anterior descending coronary artery. Occlusion of the area described [area at risk (AAR)] was created by placing ends of the ligature through a polypropylene tube and fixing the snare to the epicardial surface with a hemostat. After 30 min, the hemostat was released to reperfuse the AAR. Following 2 h of reperfusion, the ligature was again occluded, and the AAR was determined by patent-blue negative staining. The heart was then excised, cross-sectioned into 4 to 5 slices, and separated into normal zone and AAR. Pieces were incubated in 1% 2,3,5-triphenyltetrazolium chloride to determine IS. The heart was then incubated overnight in 10% formaldehyde, and infarcted tissue was dissected from the AAR. IS was expressed as a percentage of the AAR (IS/AAR). Leptin (0.12 μg/kg) was administered intravenously as a bolus at 24 and 12 h before ischemia. Amino acids were administered intravenously as a bolus at 24 and 12 hours before ischemia or dissolved in the drinking water and given 48 hours before ischemia.
as §1

The next experiment has as its system rat heart. The note with it: pharmacologic preconditioning (Baker 2007, 2008); cited from earlier work.
Another experiment concerns leptin. Briefly: Plasma cytokine analysis (leptin). The format is in vivo, rat. The conditions noted are these: Dahl S rats fed 15 ml/rat/d for 14 d, with or without leptin. Here is the method:
The concentration of cytokines in blood of rats treated with vancomycin was quantified to identify antibiotic-induced changes. […] Blood samples were kept on ice for 30 min and then centrifuged at 1000 g for 10 min at 4° C. to obtain plasma. Plasma samples were then analyzed to determine the concentration of 23 cytokines (Eve Technologies, Calgary, AB, Canada). Antibiotic was administered continuously via drinking water as described in example 1.

The next experiment concerns Dahl S rats. Briefly: In vivo regional myocardial ischemia/reperfusion, infarct size (IS/AAR). Details: species or system rat. The conditions noted are these: vancomycin 15 mg/kg/day for 72 hours, thrombopoietin i.v. 15 minutes prior to ischemia.
Source text: as §2

Consider eleven molecules from patent US20130052172A1, “METHODS FOR DIAGNOSING AND TREATING CARDIAC DEFECTS” (priority 2011, published 2013).

“Also recorded” adds a separate entry of the source. Positions of bridges follow the written chain, without caps; N, C: chain ends. Non-standard residues stand in square brackets, D forms with d. Residues, ends and D or L forms follow the SMILES beside them. *: point of attachment. Ileψ(thiazoline)Cys = CC[C@H](C)[C@H](N)C1=N[C@H](C(=O)*)CS1; dOrn = NCCC[C@@H](N)C(=O)O

As for `N#C/C(=C/c1ccc(O)c(O)c1)C(=O)NCc1ccccc1` [AG-490], in the experiment on isolated hearts (JAK-2 inhibitor 1 μM perfused prior to ischemia/reperfusion, hearts of vancomycin-treated rats), the “effect on ability of vancomycin to reduce myocardial necrosis and enhance ventricular function” value is “partially abolished the ability of vancomycin to reduce myocardial necrosis and to enhance ventricular function”. The “effect of inhibitor alone on cardioprotection” value (“effect of inhibitor alone” below) with isolated hearts is on record as “no effect on cardioprotection”. `COc1ccc(Cl)cc1C(=O)NCCc1ccc(S(=O)(=O)NC(=O)NC2CCCCC2)cc1` [Glibenclamide, glibenclamide]: in the experiment with isolated hearts (KATP channel blocker 3 μM perfused prior to ischemia/reperfusion), the “effect on ability of vancomycin to reduce myocardial necrosis and enhance ventricular function” value is “abolished the ability of vancomycin to reduce myocardial necrosis and to enhance ventricular function”. Besides, the “effect of inhibitor alone” value in the experiment with isolated hearts is given as “no effect on cardioprotection”. Take `COc1cccc(-c2cc(=O)c3ccccc3o2)c1N` [PD98059]: in the experiment on isolated hearts, the “effect of inhibitor alone” value is listed as “no effect on cardioprotection”. The “effect on ability of vancomycin to reduce myocardial necrosis and enhance ventricular function” value with isolated hearts (p42/44 MAPK inhibitor 10 μM perfused prior to ischemia/reperfusion) was “abrogated the ability of vancomycin to reduce myocardial necrosis and to enhance ventricular function”. In the case of `C[S+]([O-])c1ccc(-c2nc(-c3ccncc3)c(-c3ccc(F)cc3)[nH]2)cc1` (centres unmarked) [SB 203580], the “effect of inhibitor alone” value in the experiment with isolated hearts was “no effect on cardioprotection”. Besides, the “effect on ability of vancomycin to reduce myocardial necrosis and enhance ventricular function” value with isolated hearts (p38 MAPK inhibitor 15 μM perfused prior to ischemia/reperfusion) is “abolished the ability of vancomycin to reduce myocardial necrosis and to enhance ventricular function”. Take `CC[C@H](C)[C@H](N)C1=N[C@H](C(=O)N[C@@H](CC(C)C)C(=O)N[C@H](CCC(=O)O)C(=O)N[C@H](C(=O)N[C@H]2CCCCNC(=O)[C@H](CC(N)=O)NC(=O)[C@@H](CC(=O)O)NC(=O)[C@H](Cc3cnc[nH]3)NC(=O)[C@@H](Cc3ccccc3)NC(=O)[C@H]([C@@H](C)CC)NC(=O)[C@@H](CCCN)NC2=O)[C@@H](C)CC)CS1` [bacitracin] ({Ileψ(thiazoline)Cys}-L[dE]IK[dOrn]I[dF]H[dD]N; lactam 4-C): the “effect on myocardial infarct size” value with rats is “did not induce protection”.

For the molecule `[H]/N=C(/N)N[C@H]1[C@H](O)[C@@H](O)[C@H](O[C@@H]2O[C@@H](C)[C@](O)(C=O)[C@H]2O[C@@H]2O[C@@H](CO)[C@H](O)[C@@H](O)[C@@H]2NC)[C@@H](N/C(N)=N\[H])[C@@H]1O` [streptomycin], the “effect on myocardial infarct size” value in the experiment with rats is “reduce myocardial infarct size”. “erythropoietin: pharmacologic preconditioning agent, cited from Baker 2007 (darbepoetin alfa paper)”: in the experiment on rat heart, the “reduction in IS” value is 39%. Consider “leptin: 16-kDa, 167-aa polypeptide synthesized and secreted into the circulation primarily by white adipocytes”, for which the “effect on leptin levels in blood” value in the experiment on leptin is given as “no effect on leptin levels”. Moreover, in the experiment with isolated hearts (Dahl S rats fed 15 ml/rat/d for 14 d, with or without leptin 0.12 μg/kg), the “effect on IS / myocardial infarction” value is “no effect on IS”. The “effect of leptin in the absence of vancomycin pretreatment” value with isolated hearts (leptin 0.12 μg/kg i.v. at 24 and 12 h before ischemia/reperfusion) is reported as “had no effect”. The “effect on probiotic juice-induced cardioprotection” value in the experiment on isolated hearts (leptin 0.12 μg/kg i.v. at 24 and 12 h before ischemia/reperfusion, probiotic juice-fed rats) is listed as “abolished probiotic juice-induced cardioprotection; also recorded: reversed”. In addition, in the experiment with isolated hearts (leptin 0.12 μg/kg i.v. at 24 and 12 h before ischemia/reperfusion, vancomycin-treated rats), the “effect on decrease in IS and increase in recovery of LVDP conferred by vancomycin” value is “abolished the decrease in IS and increase in recovery of LVDP conferred by vancomycin treatment; also recorded: reversed cardioprotection by vancomycin”.

Take neomycin: the “effect on myocardial infarct size” value with rats is on record as “reduce myocardial infarct size”. The same measure, in the same setting: for polymyxin B the value was “did not induce protection”. “thrombopoietin: agent of classical pharmacologic preconditioning; human thrombopoietin (Baker 2008)”: in the experiment with rat heart, the “reduction in IS” value is on record as 34%. The “decrease in infarct size” value in the experiment on Dahl S rats was determined as 25%.
